Experimental data: patent US20210087195A1, “NEW CRYSTAL FORM OF ACALBRUTINIB, PREPARATION METHOD THEREFOR AND USE THEREOF” (Crystal Pharmaceutical (Suzhou) Co., Ltd., priority 2018, published 2021)
Converted amounts (≈) assume the structure as drawn. “Also recorded” adds a separate entry of the source. Read-outs that look alike come from different tables or passages of the source. Values belong to the molecule of their own block, whether it stands above or below them.

Assays:
Type in all cases: physicochemical
[1] = Slurry competition experiments between Form K1 and Form I in water; settings: 5° C. and room temperature
Procedure: Approximately 30 mg of Form K1 and Form I of WO2017002095A1 were weighed and suspended into water at 5° C. and room temperature, to evaluate the stability of Form K1 and Form I of WO2017002095A1.

[2] = Solubility in organic solvents (incremental solvent addition)
Procedure: A certain amount of Form K1 or Form I of WO2017002095A1 was added into a glass vial. Organic solvent was added into the glass vial in increments of 100 μL. Solid was quickly dispersed in solvent through oscillation or sonication, and the process was monitored to see whether the solid was completely dissolved. No more solvent was added when solids were completely dissolved, or a total volume of solvent reached 1.5 mL. According to mass of sample (m) and volume of solvent added, solubility (S) of different crystalline forms in organic solvent was calculated.

[3] = Physical stability of crystalline form in water (suspension, magnetic stirring or shaking, XRPD); settings: for Physical stability in water (crystalline form change): magnetic stirring and shaking at room temperature and 5° C., up to 7 days
Procedure: The following experiments were conducted to compare physical stability of Form K1 of the present disclosure and Form I of WO2017002095A1 in water. Approximately 10 mg of Form K1 and Form I solids were added into 1.0 mL of pure water separately to form suspensions. The suspensions were dispersed by magnetic stirring and shaking at room temperature and 5° C. to evaluate the physical stability of Form K1 and Form I of WO2017002095A1 in water.

[4] = Solubility in buffers of pH 7.0, 7.4 and 8.7 (HPLC); settings: for solubility at 2 h: phosphate buffer, thermodynamic from solid, read-out: Solubility after equilibration for 2 hours
Procedure: A sufficient amount of Form K1 or Form I of WO2017002095A1 was suspended in buffers of pH 7.0, 7.4 and 8.7. After being stirred and equilibrated for 2 hours, the suspension was centrifuged to obtain supernatant. Concentration (mg/mL) of the supernatant was analyzed by HPLC.

[5] = Compressibility (tensile strength of compressed powder); settings: φ6 mm round tooling, compressed at 10 kN, T=2H/πDL
Procedure: Approximately 80 mg of Form K1 or Form I of WO2017002095A1 was added into the dies of φ6 mm round tooling, compressed at 10 kN manually, and then stored in a desiccator for 24 hours until complete elastic recovery. Radial crushing force (hardness, H) was tested with an intelligent tablet hardness tester. Diameter (D) and thickness (L) were tested with a caliper. Tensile strength of the powder with different hardness was calculated with the following formula: T=2H/πDL. Under a certain force, the greater the tensile strength, the better the compressibility.

[6] = Adhesiveness (amount sticking to the punch); settings: φ8 mm round tooling, 10 kN, held 30 s, compression repeated twice
Procedure: Approximately 30 mg of Form K1 or Form I of WO2017002095A1 was weighed and then added into the dies of φ8 mm round tooling, compressed at 10 kN and held for 30 s. The amount of material sticking to the punch was weighed. The compression was repeated twice and the cumulative amount and average amount of solids sticking to the punch during the compression were recorded.

[7] = Physical stability under manual grinding (XRPD); settings: ground manually in a mortar for 5 minutes
Procedure: Form K1 was ground manually in a mortar for 5 minutes.

[8] = Form change during capsule formulation process (XRPD); settings: before and after capsule preparation
Procedure: Form K1 capsules were prepared according to the formulation listed in Table 11 and the preparation process described in Table 12. XRPD was performed to test the form change before and after capsule preparation.

[9] = Stability of drug substance at long-term and accelerated conditions (XRPD); settings: for Solid form after storage: one month
Procedure: Four samples, 10 mg each of Form K1 of the present disclosure was stored in HPLC glass vials. The HPLC glass vials were capped in sealed conditions, or covered with Parafilm with 3-5 pinholes in open conditions. After one month, solid forms were checked by XRPD.

[10] = listed as Form I of WO2017002095A1

- Form conversion in slurry competition [1]: convert into Form K1
- Solubility ([2]; 1,4-Dioxane): S < 13.1 mg/mL
- Solubility ([2]; 2-methyltetrahydrofuran): S < 8.9 mg/mL
- Solubility ([2]; Acetone): S < 6.5 mg/mL
- Solubility ([2]; Acetonitrile): S < 7.8 mg/mL
- Solubility ([2]; Ethanol): S < 6.4 mg/mL
- Solubility ([2]; Ethyl acetate): S < 7.9 mg/mL
- Solubility ([2]; Isopropanol): S < 6.5 mg/mL
- Solubility ([2]; Methanol): S < 27.0 mg/mL
- Solubility ([2]; Methyl ethyl ketone): S < 7.6 mg/mL
- Solubility ([2]; Methyl isobutyl ketone): S < 7.7 mg/mL
- Solubility ([2]; Tetrahydrofuran): S < 16.1 mg/mL
- Solubility ([2]; n-Butanol): S < 8.7 mg/mL
- Solubility ([2]; n-Propanol): S < 7.5 mg/mL
- Solubility after equilibration for 2 hours ([4]; pH = 7.0 phosphate aqueous solution): 64 µg/mL
- Solubility after equilibration for 2 hours ([4]; pH = 7.4 phosphate aqueous solution): 55 µg/mL
- Solubility after equilibration for 2 hours ([4]; pH = 8.7 phosphate aqueous solution): 56 µg/mL
- Tensile strength [5, 10]: Unable to be compressed into a tablet
- Average amount sticking to the punch [6, 10]: 45 µg
- Cumulative amount sticking to the punch [6, 10]: 90 µg
SMILES: CC#CC(=O)N1CCC[C@H]1c1nc(-c2ccc(C(=O)Nc3ccccn3)cc2)c2c(N)nccn12 [Form I, (S)-4-(8-amino-3-(1-(but-2-ynoyl)pyrrolidin-2-yl)imidazo[1,5-a]pyrazin-1-yl)-N-(pyridin-2-yl)benzamide, reference compound]
- Physical stability in water (crystalline form change) [3]: crystallinity decrease and almost converts into amorphous
- Solid form changes in the suspension ([3]; water, magnetic stirring, room temperature, 4 hours): crystallinity decrease and almost converts into amorphous

- Solubility ([2]; 1,4-Dioxane): S > 102.0 mg/mL
- Solubility ([2]; 2-methyltetrahydrofuran, organic solvent or mixture, thermodynamic from solid, 2-methyltetrahydrofuran, read-out: Solubility): > 17600 µg/mL
- Solubility ([2]; Acetone): S > 137.0 mg/mL
- Solubility ([2]; Acetonitrile): S > 36.3 mg/mL
- Solubility ([2]; Ethanol): S > 120.0 mg/mL
- Solubility ([2]; Isopropanol): S > 48.0 mg/mL
- Solubility ([2]; Methanol): S > 89.0 mg/mL
- Solubility ([2]; Methyl ethyl ketone): S > 114.0 mg/mL
- Solubility ([2]; Tetrahydrofuran): S > 142.0 mg/mL
- Solubility ([2]; ethyl acetate, organic solvent or mixture, thermodynamic from solid, Ethyl acetate, read-out: Solubility): > 13200 µg/mL
- Solubility ([2]; methyl isobutyl ketone, organic solvent or mixture, thermodynamic from solid, Methyl isobutyl ketone, read-out: Solubility): > 10000 µg/mL
- Solubility ([2]; n-Butanol): S > 30.3 mg/mL
- Solubility ([2]; n-Propanol): S > 58.0 mg/mL
- solubility at 2 h ([4]; pH 7, aqueous buffer, pH = 7.0 phosphate aqueous solution): 79 µg/mL (≈ 170 µM)
- solubility at 2 h ([4]; pH 7.4, aqueous buffer, pH = 7.4 phosphate aqueous solution): 69 µg/mL (≈ 148 µM)
- solubility at 2 h ([4]; pH 8.7, aqueous buffer, pH = 8.7 phosphate aqueous solution): 66 µg/mL (≈ 142 µM)
- Tensile strength [5]: 1.31 MPa
- Average amount sticking to the punch [6]: 30 µg
- Cumulative amount sticking to the punch [6]: 60 µg
- Form change during capsule formulation process [8]: doesn't change
- Stability of drug substance (time kept stable) ([9]; 25° C./60% RH and 40° C./75% RH, sealed and open): stable for at least one month
- Solid form after storage ([9]; 25° C./60% RH, open): Form K1
- Solid form after storage ([9]; 25° C./60% RH, sealed): Form K1
- Solid form after storage ([9]; 40° C./75% RH, open): Form K1
- Solid form after storage ([9]; 40° C./75% RH, sealed): Form K1
SMILES: CC#CC(=O)N1CCC[C@H]1c1nc(-c2ccc(C(=O)Nc3ccccn3)cc2)c2c(N)nccn12 [Form K1, (S)-4-(8-amino-3-(1-(but-2-ynoyl)pyrrolidin-2-yl)imidazo[1,5-a]pyrazin-1-yl)-N-(pyridin-2-yl)benzamide]
- Physical stability in water (crystalline form change) [3]: no crystalline form change; also recorded: doesn't change
- Physical stability under grinding (form change) [7]: no obvious form change or crystallinity decrease
